Experimental data published in patent US20110245349A1, “BENZYL ALCOHOL MIXTURE FOR TREATING PREMATURE EJACULATION” (PANAXIA LTD., priority 2010, published 2011).

Test system: sexual desensitization of male subjects
Assay: Desensitization effect scored by male subjects after rubbing the mixture on the genital organs and manual stimulation
Type: in vivo, human
Settings: for Mean desensitization effect: scale of 1-10, mean of 5 subjects
Experimental: In a trial which was conducted on 5 healthy, sexually active male subjects the following formulations were tested: Benzyl alcohol in concentrations: 1%, 3%, 5%, 7% and 10%. Each of the concentrations was tested in the following vehicles: aqueous alcoholic solution, gel, ointment and cream. For each formulation the participants were requested to rub the mixture on their genital organs until complete skin absorption and then wait for the full effect for 5 minutes. After the waiting period the participants were requested to perform manual stimulation of their genital organs and describe the desensitization effect of the mixture in a scale of 1-10.
In another trial, menthol was added to the mixture and the same procedure that was described earlier was applied to assess the effect of menthol addition.

Q: What does the source list for `CC1CCC(C(C)C)C(O)C1` (stereo not drawn) [menthol, Menthol]?
A: Desensitization effect (in words) (menthol combined with benzyl alcohol gel, compared with the same concentration of benzyl alcohol alone): dramatic effect; Desensitization effect (in words) (sole use of menthol in 1% Hydroxyethylcellulose gel): did not create a substantial desensitization effect

Q: For `OCc1ccccc1` [Benzyl alcohol], which “Desensitization effect (in words)” value (each of the benzyl alcohol concentrations tested (1-10%)) is on record?
A: The value was “effective as a desensitizer”.

Q: What about the “Optimal concentration of benzyl alcohol” value (found in the applicant's tests) of the same molecule?
A: Its value is 5%.

Q: And the Mean desensitization effect (aqueous alcoholic solution (1:1 water ethanol mixture), benzyl alcohol 1%, 5 min wait)?
A: Its Mean desensitization effect is 3.2.

Q: And the Mean desensitization effect (aqueous alcoholic solution (1:1 water ethanol mixture), benzyl alcohol 3%)?
A: Its Mean desensitization effect is 4.6.

Q: And the Mean desensitization effect (aqueous alcoholic solution (1:1 water ethanol mixture), benzyl alcohol 5%)?
A: The Mean desensitization effect was 6.2.

Q: What about the Mean desensitization effect (aqueous alcoholic solution (1:1 water ethanol mixture), benzyl alcohol 7%) of the same molecule?
A: Its Mean desensitization effect is 7.6.

Q: What about the Mean desensitization effect (aqueous alcoholic solution (1:1 water ethanol mixture), benzyl alcohol 10%) of the same molecule?
A: The Mean desensitization effect was 8.0.

Q: And the Mean desensitization effect (aqueous gel (1% hydroxyethylcellulose gel), benzyl alcohol 1%)?
A: Its Mean desensitization effect is 2.8.

Q: And the Mean desensitization effect (aqueous gel (1% hydroxyethylcellulose gel), benzyl alcohol 3%)?
A: Its Mean desensitization effect is 4.2.

Q: And the Mean desensitization effect (aqueous gel (1% hydroxyethylcellulose gel), benzyl alcohol 5%)?
A: The Mean desensitization effect was 5.6.

Q: And the Mean desensitization effect (aqueous gel (1% hydroxyethylcellulose gel), benzyl alcohol 7%)?
A: Its Mean desensitization effect is 6.6.

Q: What about the Mean desensitization effect (aqueous gel (1% hydroxyethylcellulose gel), benzyl alcohol 10%) of the same molecule?
A: The Mean desensitization effect was 7.4.

Q: And the Mean desensitization effect (cream, benzyl alcohol 1%)?
A: The Mean desensitization effect was 2.4.

Q: And the Mean desensitization effect (cream, benzyl alcohol 3%)?
A: Its Mean desensitization effect is 3.6.

Q: And the Mean desensitization effect (cream, benzyl alcohol 5%)?
A: The Mean desensitization effect was 5.2.

Q: What about the Mean desensitization effect (cream, benzyl alcohol 7%) of the same molecule?
A: The Mean desensitization effect was 6.2.

Q: And the Mean desensitization effect (cream, benzyl alcohol 10%)?
A: The Mean desensitization effect was 6.8.

Q: What about the Mean desensitization effect (ointment, benzyl alcohol 1%) of the same molecule?
A: The Mean desensitization effect was 2.0.

Q: And the Mean desensitization effect (ointment, benzyl alcohol 3%)?
A: The Mean desensitization effect was 3.2.

Q: What about the Mean desensitization effect (ointment, benzyl alcohol 5%) of the same molecule?
A: The Mean desensitization effect was 4.8.

Q: And the Mean desensitization effect (ointment, benzyl alcohol 7%)?
A: The Mean desensitization effect was 5.8.

Q: And the Mean desensitization effect (ointment, benzyl alcohol 10%)?
A: The Mean desensitization effect was 6.2.
